Numbers after ± are expanded uncertainties.
Conditions: 101.33 kPa, Liquid; for electrical conductivity: Alternating current cell with electrodes; for speed of sound: Sing-around technique in a fixed-path interferometer; for mass density: Vibrating tube method

CCCCn1cc[n+](C)c1.F[P-](F)(F)(F)(F)F [1-butyl-3-methylimidazolium hexafluorophosphate]
Conditions	electrical conductivity [S/m]	mass density [kg/m3]	speed of sound [m/s]
293.15 K	0.137 ± 0.0082	1371.61 ± 4.7	1454.9 ± 3.1
298.15 K	0.183 ± 0.011	1367.65 ± 4.7	1442.6 ± 3.1
303.15 K	0.224 ± 0.013	1363.13 ± 4.7	1430.7 ± 3.1
308.15 K	0.267 ± 0.016	1359.04 ± 4.6	1419 ± 3.1
313.15 K	0.314 ± 0.019	1354.93 ± 4.6	1407.6 ± 3.1
318.15 K	0.384 ± 0.023	1350.83 ± 4.6	1396.3 ± 3.1
323.15 K	0.459 ± 0.028	1346.72 ± 4.6	1385.2 ± 3.1

From the NIST ThermoML archive (doi:10.1016/j.jct.2012.01.028)
